In patent publication US9738634B2, “Heterocyclic amide compound and herbicide” (SYNGENTA PARTICIPATIONS AG, priority 2013, dated 2017):

Columns and labels:
Assay type in all cases: in vivo
Conditions in all cases: treatment dosage 320 g/ha
bulrush [1] = test: Test Example 2: weedkilling efficacy, growth period weed treatment in the submerged state; B: bulrush
Outline: (§1)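 First, alluvial soil in pots is flooded to 4 cm and mixed seed is sown. Next, plants grow in a greenhouse at 25 to 30° C until the 1-2 leaf stage. Then diluted emulsion is applied onto the water surface at the given g/ha rate, and injury is assessed after 3 weeks.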

transplanted rice = test: Test Example 1: preemergent weed treatment in the submerged state, effect on crop; a: transplanted rice
Outline: (§2)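 Alluvial soil in Wagner pots flooded to 4 cm; barnyard grass, bulrush and oval-leafed pondweed seeds sown, then 2.5-leaf rice seedlings transplanted. Same day, emulsified compound diluted in water to set g/ha dosages and applied to water surface; greenhouse 25–30 °C, effect scored by criteria after 3 weeks.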

redroot pigweed [2] = test: Test Example 3: weedkilling efficacy through soil treatment; L: redroot pigweed
Outline: (§3)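 Crop and weed responses were judged three weeks after a uniform surface spray of the water-diluted emulsion at the given g/ha rate. Seeds sat beneath about 1.5 cm of sterilized diluvial soil, and boxes stood in a greenhouse at 25 to 30° C.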

wheat [3] = test: Test Example 3: soil treatment, effect on crop; e: wheat
Outline: as §3

common wind-grass [4] = test: Test Example 3: weedkilling efficacy through soil treatment; J: common wind-grass
Outline: as §3

catchweed = test: Test Example 4: weedkilling efficacy by foliar treatment; O: catchweed
Outline: (§4)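 Seeds are spot-sown into sterilized diluvial soil and covered with about 1.5 cm of soil. After 14 days' greenhouse growth at 25 to 30° C, plants are sprayed on stems and leaves with diluted emulsion at the stated g/ha rate, then scored at 3 weeks.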

birds-eye speedwell [5] = test: Test Example 3: weedkilling efficacy through soil treatment; p: birds-eye speedwell
Outline: as §3

Indian mallow [6] = test: Test Example 4: weedkilling efficacy by foliar treatment; K: Indian mallow
Outline: as §4

oval-leafed pondweed [7] = test: Test Example 1: weedkilling efficacy, preemergent weed treatment in the submerged state; C: oval-leafed pondweed
Outline: as §2

wild oat [8] = test: Test Example 3: weedkilling efficacy through soil treatment; G: wild oat
Outline: as §3

beet [9] = test: Test Example 3: soil treatment, effect on crop; f: beet
Outline: as §3

soybean [10] = test: Test Example 3: soil treatment, effect on crop; d: soybean
Outline: as §3

oval-leafed pondweed [11] = test: Test Example 2: weedkilling efficacy, growth period weed treatment in the submerged state; C: oval-leafed pondweed
Outline: as §1

black-grass [12] = test: Test Example 3: weedkilling efficacy through soil treatment; H: black-grass
Outline: as §3

birds-eye speedwell [13] = test: Test Example 4: weedkilling efficacy by foliar treatment; p: birds-eye speedwell
Outline: as §4

fig-leafed goosefoot [14] = test: Test Example 3: weedkilling efficacy through soil treatment; M: fig-leafed goosefoot
Outline: as §3

rapeseed [15] = test: Test Example 4: foliar treatment, effect on crop; g: rapeseed
Outline: as §4

Italian ryegrass [16] = test: Test Example 3: weedkilling efficacy through soil treatment; I: Italian ryegrass
Outline: as §3

black-grass [17] = test: Test Example 4: weedkilling efficacy by foliar treatment; H: black-grass
Outline: as §4

beet [18] = test: Test Example 4: foliar treatment, effect on crop; f: beet
Outline: as §4

soybean [19] = test: Test Example 4: foliar treatment, effect on crop; d: soybean
Outline: as §4

green foxtail [20] = test: Test Example 3: weedkilling efficacy through soil treatment; E: green foxtail
Outline: as §3

crabgrass [21] = test: Test Example 3: weedkilling efficacy through soil treatment; D: crabgrass
Outline: as §3

Indian mallow [22] = test: Test Example 3: weedkilling efficacy through soil treatment; K: Indian mallow
Outline: as §3

crabgrass [23] = test: Test Example 4: weedkilling efficacy by foliar treatment; D: crabgrass
Outline: as §4

directly sown rice [24] = test: Test Example 4: foliar treatment, effect on crop; b: directly sown rice
Outline: as §4

common wind-grass [25] = test: Test Example 4: weedkilling efficacy by foliar treatment; J: common wind-grass
Outline: as §4

barnyard grass [26] = test: Test Example 2: weedkilling efficacy, growth period weed treatment in the submerged state; A: barnyard grass
Outline: as §1

corn [27] = test: Test Example 3: soil treatment, effect on crop; c: corn
Outline: as §3

chickweed [28] = test: Test Example 4: weedkilling efficacy by foliar treatment; N: chickweed
Outline: as §4

green foxtail [29] = test: Test Example 4: weedkilling efficacy by foliar treatment; E: green foxtail
Outline: as §4

fig-leafed goosefoot [30] = test: Test Example 4: weedkilling efficacy by foliar treatment; M: fig-leafed goosefoot
Outline: as §4

barnyard grass [31] = test: Test Example 3: weedkilling efficacy through soil treatment; F: barnyard grass
Outline: as §3

wheat [32] = test: Test Example 4: foliar treatment, effect on crop; e: wheat
Outline: as §4

directly sown rice [33] = test: Test Example 3: soil treatment, effect on crop; b: directly sown rice
Outline: as §3

redroot pigweed [34] = test: Test Example 4: weedkilling efficacy by foliar treatment; L: redroot pigweed
Outline: as §4

barnyard grass [35] = test: Test Example 4: weedkilling efficacy by foliar treatment; F: barnyard grass
Outline: as §4

rapeseed [36] = test: Test Example 3: soil treatment, effect on crop; g: rapeseed
Outline: as §3

barnyard grass [37] = test: Test Example 1: weedkilling efficacy, preemergent weed treatment in the submerged state; A: barnyard grass
Outline: as §2

bulrush [38] = test: Test Example 1: weedkilling efficacy, preemergent weed treatment in the submerged state; B: bulrush
Outline: as §2

corn [39] = test: Test Example 4: foliar treatment, effect on crop; c: corn
Outline: as §4

chickweed [40] = test: Test Example 3: weedkilling efficacy through soil treatment; N: chickweed
Outline: as §3

wild oat [41] = test: Test Example 4: weedkilling efficacy by foliar treatment; G: wild oat
Outline: as §4

Italian ryegrass [42] = test: Test Example 4: weedkilling efficacy by foliar treatment; I: Italian ryegrass
Outline: as §4

## COc1cc(F)nc(NC(=O)C(C)(C)N2COC(C)=C(c3ccccc3)C2=O)c1 [B-2-41]
Bulrush [1]
  B (bulrush) weedkilling efficacy grade: 5 (weed kill ratio 90% or more, (practically complete withering))
Transplanted rice
  a (transplanted rice) effect on crop grade: 3 (weed kill ratio 40% or more, less than 70%)
Redroot pigweed [2]
  L (redroot pigweed) weedkilling efficacy grade: 3 (weed kill ratio 40% or more, less than 70%)
Wheat [3]
  e (wheat) effect on crop grade: 0 (weed kill ratio 5% or less (practically no effect))
Common wind-grass [4]
  J (common wind-grass) weedkilling efficacy grade: 5 (weed kill ratio 90% or more, (practically complete withering))
catchweed
  O (catchweed) weedkilling efficacy grade: 5 (weed kill ratio 90% or more, (practically complete withering))
birds-eye speedwell [5]
  P (birds-eye speedwell) weedkilling efficacy grade: 5 (weed kill ratio 90% or more, (practically complete withering))
Indian mallow [6]
  K (Indian mallow) weedkilling efficacy grade: 5 (weed kill ratio 90% or more, (practically complete withering))
oval-leafed pondweed [7]
  C (oval-leafed pondweed) weedkilling efficacy grade: 5 (weed kill ratio 90% or more, (practically complete withering))
Wild oat [8]
  G (wild oat) weedkilling efficacy grade: 3 (weed kill ratio 40% or more, less than 70%)
Beet [9]
  f (beet) effect on crop grade: 3 (weed kill ratio 40% or more, less than 70%)
Soybean [10]
  d (soybean) effect on crop grade: 0 (weed kill ratio 5% or less (practically no effect))
oval-leafed pondweed [11]
  C (oval-leafed pondweed) weedkilling efficacy grade: 5 (weed kill ratio 90% or more, (practically complete withering))
black-grass [12]
  H (black-grass) weedkilling efficacy grade: 5 (weed kill ratio 90% or more, (practically complete withering))
birds-eye speedwell [13]
  P (birds-eye speedwell) weedkilling efficacy grade: 5 (weed kill ratio 90% or more, (practically complete withering))
fig-leafed goosefoot [14]
  M (fig-leafed goosefoot) weedkilling efficacy grade: 4 (weed kill ratio 70% or more, less than 90%)
Rapeseed [15]
  g (rapeseed) effect on crop grade: 5 (weed kill ratio 90% or more, (practically complete withering))
Italian ryegrass [16]
  I (Italian ryegrass) weedkilling efficacy grade: 5 (weed kill ratio 90% or more, (practically complete withering))
black-grass [17]
  H (black-grass) weedkilling efficacy grade: 5 (weed kill ratio 90% or more, (practically complete withering))
Beet [18]
  f (beet) effect on crop grade: 4 (weed kill ratio 70% or more, less than 90%)
Soybean [19]
  d (soybean) effect on crop grade: 4 (weed kill ratio 70% or more, less than 90%)
Green foxtail [20]
  E (green foxtail) weedkilling efficacy grade: 5 (weed kill ratio 90% or more, (practically complete withering))
Crabgrass [21]
  D (crabgrass) weedkilling efficacy grade: 5 (weed kill ratio 90% or more, (practically complete withering))
Indian mallow [22]
  K (Indian mallow) weedkilling efficacy grade: 2 (weed kill ratio 20% or more, less than 40%)
Crabgrass [23]
  D (crabgrass) weedkilling efficacy grade: 5 (weed kill ratio 90% or more, (practically complete withering))
Directly sown rice [24]
  b (directly sown rice) effect on crop grade: 4 (weed kill ratio 70% or more, less than 90%)
Common wind-grass [25]
  J (common wind-grass) weedkilling efficacy grade: 5 (weed kill ratio 90% or more, (practically complete withering))
Barnyard grass [26]
  A (barnyard grass) weedkilling efficacy grade: 5 (weed kill ratio 90% or more, (practically complete withering))
Corn [27]
  c (corn) effect on crop grade: 0 (weed kill ratio 5% or less (practically no effect))
Chickweed [28]
  N (chickweed) weedkilling efficacy grade: 4 (weed kill ratio 70% or more, less than 90%)
Green foxtail [29]
  E (green foxtail) weedkilling efficacy grade: 5 (weed kill ratio 90% or more, (practically complete withering))
fig-leafed goosefoot [30]
  M (fig-leafed goosefoot) weedkilling efficacy grade: 3 (weed kill ratio 40% or more, less than 70%)
Barnyard grass [31]
  F (barnyard grass) weedkilling efficacy grade: 5 (weed kill ratio 90% or more, (practically complete withering))
Wheat [32]
  e (wheat) effect on crop grade: 0 (weed kill ratio 5% or less (practically no effect))
Directly sown rice [33]
  b (directly sown rice) effect on crop grade: 4 (weed kill ratio 70% or more, less than 90%)
Redroot pigweed [34]
  L (redroot pigweed) weedkilling efficacy grade: 4 (weed kill ratio 70% or more, less than 90%)
Barnyard grass [35]
  F (barnyard grass) weedkilling efficacy grade: 5 (weed kill ratio 90% or more, (practically complete withering))
Rapeseed [36]
  g (rapeseed) effect on crop grade: 4 (weed kill ratio 70% or more, less than 90%)
Barnyard grass [37]
  A (barnyard grass) weedkilling efficacy grade: 5 (weed kill ratio 90% or more, (practically complete withering))
Bulrush [38]
  B (bulrush) weedkilling efficacy grade: 5 (weed kill ratio 90% or more, (practically complete withering))
Corn [39]
  c (corn) effect on crop grade: 4 (weed kill ratio 70% or more, less than 90%)
Chickweed [40]
  N (chickweed) weedkilling efficacy grade: 4 (weed kill ratio 70% or more, less than 90%)
Wild oat [41]
  G (wild oat) weedkilling efficacy grade: 3 (weed kill ratio 40% or more, less than 70%)
Italian ryegrass [42]
  I (Italian ryegrass) weedkilling efficacy grade: 5 (weed kill ratio 90% or more, (practically complete withering))
